From patent US10463644B2, “Uses of sesquiterpene lactone compounds and their derivatives in drugs preparation” (ACCENDATECH, priority 2013, dated 2019)
Where two headings read alike, the source gives them in different places.

Legend:
[1] = system: cancer cells; assay: Survival rate of cancer cells after test compound is added (flow cytometry, Annexin V-FITC/PI, clinical specimen); assay type: cell-based, patient; conditions: Homo sapiens, 18 h, read-out: Survival rate (%) All cells (Stem cells and ordinary cells)
Method in brief: (§1)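 Ficoll-isolated mononuclear cells from patient specimens (e.g. AML) in serum-free IMDM at 1×10^6/mL were exposed to compound for 18 hours. Cells were stained for stem-cell markers (CD34+CD38+ for AML) plus Annexin V-FITC/PI, and apoptosis was read by flow cytometry within one hour.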

[2] = system: PGE2 secreted by synoviocyte; assay: Content of PGE2 in culture supernatant of synoviocyte of RA model rats given test compound; assay type: in vivo; conditions: rat RA model, dose 30 mg/kg.2d; normal control 8.34 ± 1.29, NaCl 32.44 ± 10.32
Method in brief: (§2)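 Animals with induced RA are grouped and dosed with compound (30 mg/kg.2d) alongside NaCl and normal controls. Synoviocytes are prepared and cultured, and supernatants are harvested. TNF-α and PGE2 secretion are then quantified by one procedure, IL-1β by another.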

[3] = system: IL-1β secreted by synoviocyte; assay: Content of IL-1β in culture supernatant of synoviocyte of RA model rats given test compound; assay type: in vivo; conditions: rat RA model, dose 30 mg/kg.2d; normal control 0.16 ± 0.034, NaCl 0.49 ± 0.136
Method in brief: as §2

[4] = system: TNF-α secreted by synoviocyte; assay: Content of TNF-α in culture supernatant of synoviocyte of RA model rats given test compound; assay type: in vivo; conditions: rat RA model, dose 30 mg/kg.2d; normal control 0.38 ± 0.027, NaCl 0.74 ± 0.098
Method in brief: as §2

[5] = system: cancer stem cells; assay: Survival rate of cancer stem cells after test compound is added (flow cytometry, Annexin V-FITC/PI, clinical specimen); assay type: cell-based, patient; conditions: Homo sapiens, 18 h
Method in brief: as §1

[6] = Head and neck squamous cell carcinomas

SMILES: C=C1C(=O)O[C@@H]2[C@@H]3[C@@H](CC[C@@]3(C)O)[C@](C)(O)CC[C@@H]12 [Compound 49]
- viability at 10 µM ([1]; AML): 92%
- viability at 20 µM ([1]; AML): 89%
- viability at 10 µM ([1]; Brain glioma): 88%
- viability at 20 µM ([1]; Brain glioma): 87%
- viability at 10 µM ([1]; Brain tumor): 88%
- viability at 20 µM ([1]; Brain tumor): 87%
- viability at 10 µM ([1]; Breast cancer): 89%
- viability at 20 µM ([1]; Breast cancer): 87%
- viability at 10 µM ([1]; CLL): 91%
- viability at 20 µM ([1]; CLL): 85%
- viability at 10 µM ([1]; CML): 90%
- viability at 20 µM ([1]; CML): 86%
- viability at 10 µM ([1]; Children hepatoblastoma): 93%
- viability at 20 µM ([1]; Children hepatoblastoma): 92%
- viability at 10 µM ([1]; Colon adenocarcinoma): 93%
- viability at 20 µM ([1]; Colon adenocarcinoma): 86%
- viability at 10 µM ([1]; Colorectal cancer): 88%
- viability at 20 µM ([1]; Colorectal cancer): 85%
- viability at 10 µM ([1]; Gastric cancer): 92%
- viability at 20 µM ([1]; Gastric cancer): 89%
- viability at 10 µM ([1]; Gastrointestinal tumor): 92%
- viability at 20 µM ([1]; Gastrointestinal tumor): 89%
- viability at 10 µM ([1]; Glioma): 88%
- viability at 20 µM ([1]; Glioma): 89%
- viability at 10 µM [1, 6]: 91%
- viability at 20 µM [1, 6]: 87%
- viability at 10 µM ([1]; Laryngeal cancer): 91%
- viability at 20 µM ([1]; Laryngeal cancer): 88%
- viability at 10 µM ([1]; Liver cancer): 93%
- viability at 20 µM ([1]; Liver cancer): 86%
- viability at 10 µM ([1]; Lung adenocarcinoma): 91%
- viability at 20 µM ([1]; Lung adenocarcinoma): 88%
- viability at 10 µM ([1]; Lung cancer): 88%
- viability at 20 µM ([1]; Lung cancer): 82%
- viability at 10 µM ([1]; Malignant melanoma): 88%
- viability at 20 µM ([1]; Malignant melanoma): 87%
- viability at 10 µM ([1]; Nasopharynx cancer): 93%
- viability at 20 µM ([1]; Nasopharynx cancer): 86%
- viability at 10 µM ([1]; Ovarian cancer): 93%
- viability at 20 µM ([1]; Ovarian cancer): 88%
- viability at 10 µM ([1]; Pancreatic cancer): 87%
- viability at 20 µM ([1]; Pancreatic cancer): 83%
- viability at 10 µM ([1]; Prostate cancer): 92%
- viability at 20 µM ([1]; Prostate cancer): 89%
- viability at 10 µM ([1]; Retinoblastoma): 92%
- viability at 20 µM ([1]; Retinoblastoma): 89%
- viability at 10 µM ([1]; Skin cancer): 93%
- viability at 20 µM ([1]; Skin cancer): 86%
- Content of PGE2 in culture supernatant of synoviocyte (x ± s) [2]: 24.25 ± 1.94 ng/mL
- Content of IL-1β in culture supernatant of synoviocyte (x ± s) [3]: 0.39 ± 0.075 ng/mL
- Content of TNF-α in culture supernatant of synoviocyte (x ± s) [4]: 0.65 ± 0.046 ng/mL
- viability at 10 µM ([5]; AML): 85%
- viability at 20 µM ([5]; AML): 77%
- viability at 10 µM ([5]; Brain glioma): 83%
- viability at 20 µM ([5]; Brain glioma): 79%
- viability at 10 µM ([5]; Brain tumor): 83%
- viability at 20 µM ([5]; Brain tumor): 79%
- viability at 10 µM ([5]; Breast cancer): 82%
- viability at 20 µM ([5]; Breast cancer): 79%
- viability at 10 µM ([5]; CLL): 82%
- viability at 20 µM ([5]; CLL): 74%
- viability at 10 µM ([5]; CML): 87%
- viability at 20 µM ([5]; CML): 76%
- viability at 10 µM ([5]; Children hepatoblastoma): 86%
- viability at 20 µM ([5]; Children hepatoblastoma): 78%
- viability at 10 µM ([5]; Colon adenocarcinoma): 85%
- viability at 20 µM ([5]; Colon adenocarcinoma): 79%
- viability at 10 µM ([5]; Colorectal cancer): 82%
- viability at 20 µM ([5]; Colorectal cancer): 74%
- viability at 10 µM ([5]; Gastric cancer): 85%
- viability at 20 µM ([5]; Gastric cancer): 77%
- viability at 10 µM ([5]; Gastrointestinal tumor): 85%
- viability at 20 µM ([5]; Gastrointestinal tumor): 77%
- viability at 10 µM ([5]; Glioma): 82%
- viability at 20 µM ([5]; Glioma): 76%
- viability at 10 µM [5, 6]: 82%
- viability at 20 µM [5, 6]: 73%
- viability at 10 µM ([5]; Laryngeal cancer): 84%
- viability at 20 µM ([5]; Laryngeal cancer): 78%
- viability at 10 µM ([5]; Liver cancer): 85%
- viability at 20 µM ([5]; Liver cancer): 79%
- viability at 10 µM ([5]; Lung adenocarcinoma): 84%
- viability at 20 µM ([5]; Lung adenocarcinoma): 78%
- viability at 10 µM ([5]; Lung cancer): 79%
- viability at 20 µM ([5]; Lung cancer): 73%
- viability at 10 µM ([5]; Malignant melanoma): 82%
- viability at 20 µM ([5]; Malignant melanoma): 79%
- viability at 10 µM ([5]; Nasopharynx cancer): 84%
- viability at 20 µM ([5]; Nasopharynx cancer): 77%
- viability at 10 µM ([5]; Ovarian cancer): 86%
- viability at 20 µM ([5]; Ovarian cancer): 76%
- viability at 10 µM ([5]; Pancreatic cancer): 81%
- viability at 20 µM ([5]; Pancreatic cancer): 75%
- viability at 10 µM ([5]; Prostate cancer): 85%
- viability at 20 µM ([5]; Prostate cancer): 77%
- viability at 10 µM ([5]; Retinoblastoma): 85%
- viability at 20 µM ([5]; Retinoblastoma): 77%
- viability at 10 µM ([5]; Skin cancer): 85%
- viability at 20 µM ([5]; Skin cancer): 79%
